From patent US20090203685A1, “ANTI-PROLIFERATIVE COMPOUNDS FROM A 3-ARYL-COUMARINE OR 3-ARYL-QUINOLIN-2-ONE AND USES THEREOF” (EOS (ETHICAL ONCOLOGY SCIENCE) S.P.A., priority 2006, published 2009)

Assays:
MRC5 [1] = assay: Cell cycle analysis, MRC5; type: cell-based; settings: 500 nM
Procedure: (§1) The cells are pelleted by gentle centrifugation 1200 rpm/5 min/4° C., then the supernatant is discarded and the cells are fixed with 1 mL of PBS/Ethanol 70% overnight at −20° C. The tubes are then centrifuged during 5 minutes at 1200 rpm and the supernatant is removed. The pellet is then re-suspended in 450 μL of PBS before 50 μL of RNAse (1 mg/mL) and 5 μL of propidium iodide (2 mg/mL) are added. Each tube is left 30 minutes at 37° C. and immediately analysed by flow cytometry after incubation.
(§2) A biparametric dot plot representation FL3 peak vs FL3 integer is plotted and the cells located on the diagonal are gated and analysed on a histogram representing the number of cells as a function of the FL3 peak.
(§3) To assess the relative position of cursors defining relative proportion of cells in subG1, G1, S or G2 phase of the cell cycle, G1 and G2 peaks are to be defined first:
(§4) The G1 peak is defined as the major peak in absence of treatment (generally X=200);
(§5) The G2 peak is centered on the value which is twice the value of the G1 peak (generally X=400).
(§6) Cells in subG1 phase are plotted in the part of the histogram preceding the G1 peak (generally X<200) and cells in S phase are enclosed in the area between the G1 and G2 peaks.
(§7) On this graphic, subG1, G1, S and G2/M phases of the cell cycle can thus be defined.
(§8) Viability and cell cycle profile, tested with compound (01), at 500 nM: […]

[2] = Viability (propidium iodide staining), U937; type: cell-based; settings: human, U937 cells (myeloid), 500 nM
Procedure: (§9) Propidium iodide (PI) cannot normally cross the cell membrane; it is thus excluded by viable cells but not from dying or dead cells, having a damaged membrane, where it intercalates into double-stranded nucleic acids and fluoresces when excited at 488 nm.
(§10) The cells are pelleted by gentle centrifugation 1200 rpm/5 min/4° C., then the supernatant is discarded and replaced by 1 mL of fresh medium. One hundred microliters of propidium iodide (40 μg/mL) are added to 400 μL of the cell suspension in a FACS tube and viability is measured by flow cytometry as the percentage of cells whose fluorescence recorded on FL-3 channel is comprised between 0 and 2.
as §8

CEM = assay: Cell cycle analysis, CEM; type: cell-based; settings: 500 nM
Procedure: as §1, §2, §3, §4, §5, §6, §7, §8

[3] = Viability (propidium iodide staining), PC3; type: cell-based; settings: human, PC3 cells (prostate), 500 nM
Procedure: as §9, §10, §8

[4] = Viability (propidium iodide staining), MRC5; type: cell-based; settings: human, MRC5 non-transformed fibroblasts, 500 nM
Procedure: as §9, §10, §8

MRC5 [5] = assay: Viability (propidium iodide staining), MRC5; type: cell-based; settings: 500 nM
Procedure: as §9, §10, §8

PC3 = assay: Cell cycle analysis, PC3; type: cell-based; settings: 500 nM
Procedure: as §1, §2, §3, §4, §5, §6, §7, §8

U937 cells = assay: Apoptosis assays by flow cytometry (caspase 3, annexin-V, sub-G1, G2/M, PI) in U937 cells; type: cell-based, human; settings: 0.5 μM, 4 to 24 hours
Procedure: FIG. 4: This figure depicts the time course of cellular effects induced by 0.5 μM of compound 01 in U937 cells.
The percentage of cells showing activated Caspase 3 and phosphadityl serine exposure at the outer face of the plasma membrane were determined by flow cytometry, according the enclosed protocols. Both assays enable to detect early markers of apoptosis. […] Such DNA content is classically used as a marker of apoptosis. […] Finally, in this same experiment, the percentage of dead cells was determined by incorporation of propidium iodine. […]
Wells corresponding to 4, 6, 8, 10 hours of incubation and Control 1 were analyzed on day 1.
Wells corresponding to 12, 14, 16, 20, 24 hours of incubation and Control 2 were analyzed on day 2. […]
Briefly, 5×10^5 cells were pelleted by centrifugation 1600 rpm/4° C., resuspended in 100 μl of ice-cold 1× Annexin-V Binding Buffer containing 1 μl of Annexin V-FITC solution and 5 μl of PI (250 μg/ml). After 15 minutes of incubation on ice in the dark, 400 μl of 1× binding buffer were added and cell preparations analysed by flow cytometry. […]
For each data point, a minimum of 20.000 cells were analysed.
Caspase-3,7 activity and Annexin-V binding were quantified using the FL-1 channel while PI staining was quantified using the FL-4 channel. […]

Compound: COc1cc(NC(=S)NC(=O)/C=C/c2ccco2)ccc1-c1cc2ccccc2oc1=O [Compound 01, (2E)-3-(2-furyl)-N-({[3-methoxy-4-(2-oxo-2H-chromen-3-yl)phenyl]amino}carbonothioyl)acrylamide]
- Cell cycle profile - 72 h (MRC5 [1]): G2/M accumulation
- viability at 48 h, 0.5 µM ([2]; 48 h): 25%
- viability at 72 h, 0.5 µM ([2]; 72 h): 6%
- Cell cycle profile - 72 h (CEM): Strong sub-G1
- viability at 48 h, 0.5 µM ([3]; 48 h): 92%
- viability at 72 h, 0.5 µM ([3]; 72 h): 90%
- viability at 48 h, 0.5 µM ([4]; 48 h): 94%
- viability at 72 h, 0.5 µM ([4]; 72 h): 89%
- Effect on control non-transformed cells (MRC5) (MRC5 [5]): unaffected
- Cell cycle profile - 72 h (PC3): G2/M accumulation
- Cytostatic effect on U937 cells (early increase of G2/M population) (U937 cells): cytostatic effect
- Induction of apoptosis (activated caspase 3, phosphatidylserine exposure, sub-G1 DNA content) (U937 cells): induces apoptosis
